Results on 57 molecules are retold here after PubChem BioAssay AID743092 (The Scripps Research Institute Molecular Screening Center, 2013).

The source made the active and inactive calls. The rule behind the calls is not given here.

This assay has as its system counterscreen cell line, fluorescence, non-specific activators. Put plainly: non-specific activators in counterscreen cell line, dose response, counter-screen for GalR3 antagonist project, fluorescence, late stage (AID 743092). (A counterscreen serves to expose hits that act by an unwanted route or on another target.)
Usually IC50 stands for the concentration that gives 50% inhibition. As to `Fc1ccc(NC(=S)N2CCCN(c3ccc(C(F)(F)F)cn3)CC2)c(F)c1`, the IC50 is > 29.9 µM (inactive).
Regarding `Cc1oc(-c2ccc(Cl)cc2)nc1CSCC(=O)NC1CCN(Cc2ccccc2)CC1`, the IC50 was 26.8 µM (inactive).
To `O=C(Cc1ccc(Cl)cc1Cl)Nc1ccncc1Cl` belongs > 29.9 µM (inactive).
On to `COc1ccc(NS(=O)(=O)c2ccc(NC(=O)c3ccc(CN4CCOCC4)cc3)cc2)cc1`, for which the IC50 was > 29.9 µM (inactive).
With `CCCOc1ccc(CSc2nc3ccccc3[nH]2)cc1`, the IC50 is > 29.9 µM (inactive).
With `CC(=O)c1cn(CC(=O)NCCc2c[nH]c3ccccc23)c2ccccc12` the figure was > 29.9 µM (inactive); with `S=C(NCCc1ccccc1)Nc1cccc2cnccc12`, > 29.9 µM (inactive).
Turning to `CC1(C)CC2CC(C)(CN2S(=O)(=O)c2ccc(C(=O)Nc3cccc(S(=O)(=O)N4CCOCC4)c3)cc2)C1` (configuration not stated), the IC50 is > 29.9 µM (inactive).
To `CCOc1cc(S(=O)(=O)NCc2ccncc2)ccc1Cl` belongs > 29.9 µM (inactive); to `Cc1[nH]c(=O)c(C#N)cc1-c1ccccc1`, > 29.9 µM (inactive).
As for `COc1ccc(CCNc2ncnc3sccc23)cc1OC`, the IC50 is > 29.9 µM (inactive).
To `Nc1nonc1-n1nnc(C(=O)N/N=C/c2cc(Br)ccc2O)c1CSC1=NCCS1` belongs > 29.9 µM (inactive); to `O=S(=O)(NCc1ccncc1)c1ccc(Br)s1`, > 29.9 µM (inactive); to `CCCCc1ccc(NC(=O)c2ccc(N(C)S(C)(=O)=O)cc2)cc1`, > 29.9 µM (inactive).
With `O=C(COc1ccc(C(=O)c2ccccc2)cc1)Nc1cccnc1`, the IC50 was > 29.9 µM (inactive).
To `CNc1ccccc1C(C)(C)c1cc(-c2ccc(F)cc2)no1` belongs 19.6 µM (inactive).
With `Cc1ccccc1-c1cc(C(=O)Nc2sc(C(=O)OC(C)C)c(C)c2C#N)c2ccccc2n1` the figure was > 29.9 µM (inactive); with `Cc1ccccc1Cn1c(C)nc2ccccc21`, > 29.9 µM (inactive); with `COc1cc(CSc2nnnn2-c2ccc(C)cc2)cc(OC)c1OC`, > 29.9 µM (inactive).
To `Nc1cc(-c2ccc(Br)cc2)nn1Cc1ccccc1` belongs > 29.9 µM (inactive); to `COc1cc2c(cc1OC)[C@@H]1C(=O)c3ccc4c(c3O[C@@H]1CO2)C[C@H](C(C)C)O4`, > 29.9 µM (inactive).
As to `Cc1cccc(Cl)c1NC(=O)N1CCCN(c2nc3ccc(Cl)cc3s2)CC1`, the IC50 was > 29.9 µM (inactive).
With `CSc1ccc(C(=O)C2CCCN(C(=O)CCc3c(C)nn(C)c3C)C2)cc1` (configuration not stated) the figure was > 29.9 µM (inactive).
With `CCOC(=O)c1[nH]c2ccc(OC)cc2c1NS(=O)(=O)c1ccc(Cl)s1` the figure was > 29.9 µM (inactive); with `Cc1cc(C)nc(SCC(=O)Nc2ccnc3ccccc23)n1`, > 29.9 µM (inactive).
With `CCN(CC)S(=O)(=O)c1cc(NC(=O)CNc2cccc(S(=O)(=O)N3CCOCC3)c2)ccc1C` the figure was > 29.9 µM (inactive); with `COc1ccc(CN2CCC(C(=O)Nc3ccc(Oc4ccccc4)nc3)CC2)cc1F`, > 29.9 µM (inactive).
`Cc1nn(C)c(Nc2ccc(Br)cc2)c1Br`: the IC50 is > 29.9 µM (inactive).
On to `CCOC(=O)Cc1csc(NC(=O)c2cc(=O)c3ccccc3o2)n1`, for which the IC50 was > 29.9 µM (inactive).
For `CC1CC(=O)NN=C1c1ccc(N)c([N+](=O)[O-])c1` (configuration not stated), the IC50 was > 29.9 µM (inactive).
`CC(=O)c1ccc(N2CCN(C(=S)Nc3ccc(Oc4ccccc4)cc3)CC2)cc1`: the IC50 was > 29.9 µM (inactive).
With `Cc1nn(C)c(Cl)c1NC(=O)OCc1ccc(Cl)cc1Cl`, the IC50 is > 29.9 µM (inactive).
With `NC(=O)c1c(-c2ccc(Cl)cc2Cl)csc1NC(=O)Cc1ccccc1` the figure was > 29.9 µM (inactive); with `CCCOC(=O)c1ccc(OCC(O)Cn2c(C)nc3ccccc32)cc1` (configuration not stated), > 29.9 µM (inactive).
To `CCOc1nc(C#N)nc(N2CCCCC2)n1` belongs > 29.9 µM (inactive); to `COc1ccc(CN(C)c2ccc(S(=O)(=O)N3CCN(C)CC3)cc2[N+](=O)[O-])cc1OC`, > 29.9 µM (inactive); to `Cn1nc(C(C)(C)C)cc1C(=O)NCc1ccc(N2CCCC2=O)cc1`, > 29.9 µM (inactive).
For the molecule `COc1ccc(-n2c(C)cc(C(=O)COC(=O)Cn3cnc4ccccc43)c2C)cc1`, the IC50 was > 29.9 µM (inactive).
With `CC(C)(C)CN1CCN(Cc2nc(-c3ccc(F)cc3)cs2)CC1CCO` (configuration not stated), the IC50 was > 29.9 µM (inactive).
With `O=C(CSc1nnnn1C1CC2CCC1C2)Nc1ccnc2ccccc12` (configuration not stated) the figure was > 29.9 µM (inactive); with `O=C(CSc1nnc(Cn2nnc3ccccc32)o1)N(Cc1ccc(F)cc1)c1ccccc1`, > 29.9 µM (inactive).
In the case of `Cc1cc(CSc2ccccc2)ccc1NC(=O)c1ccc(CN2CCOCC2)cc1`, the IC50 is > 29.9 µM (inactive).
Turning to `Cc1ccc(Oc2ccc(OCC(=O)Nc3ccncc3)cc2)cc1`, the IC50 was > 29.9 µM (inactive).
As for `CC(C)(C)NC(=O)COC(=O)c1snc(C(=O)NC2CCCCC2)c1N`, the IC50 was > 29.9 µM (inactive).
With `COc1ccc(OC)c(CCNC(=O)Cn2nc(C)c3c(C)n(-c4ccc(C)cc4)nc3c2=O)c1` the figure was > 29.9 µM (inactive); with `N#Cc1cc(-c2ccccc2)oc1NC(=O)c1ccco1`, > 29.9 µM (inactive); with `COc1ccc(C(=O)CSc2nnc(Cn3cnc4ccccc43)o2)cc1`, > 29.9 µM (inactive).
In the case of `CC(C)(C)c1ccc(-n2ncc3c2CCCC3NC(=O)C2(C(N)=O)CC2)cc1` (configuration not stated), the IC50 was > 29.9 µM (inactive).
For `O=C(Nc1nc(-c2ccc(Cl)cc2Cl)cs1)c1ccc(OCC2CCCO2)cc1` (configuration not stated), the IC50 was > 29.9 µM (inactive).
With `Cc1nc2ccccc2n1Cc1ccc(Cl)cc1` the figure was > 29.9 µM (inactive).
Consider `Cc1cc(C(=O)CSc2nc(N)cc(=O)[nH]2)c(C)n1-c1ccc(OC(F)F)cc1`, for which the IC50 is > 29.9 µM (inactive).
As to `CC(C)(C)c1ccc(C(=O)Nc2ccc(Oc3cccnc3)nc2)cc1`, the IC50 is > 29.9 µM (inactive).
Regarding `CC(=O)c1c(C)[nH]c(C(=O)COc2cc(C)ccc2C(C)C)c1C`, the IC50 was > 29.9 µM (inactive).
With `Cc1nn(C)c(C)c1CN(C)S(=O)(=O)c1ccc2ccccc2c1` the figure was > 29.9 µM (inactive); with `NC(=O)c1nnn(Cc2cc(Cl)c(C(=O)c3ccc(Cl)cc3)c(Cl)c2)c1N`, > 29.9 µM (inactive).
Take `CCCCCn1c(=O)[nH]c2cc(C(=O)N3CCN(Cc4ccc5c(c4)OCO5)CC3)ccc2c1=O`: the IC50 was > 29.9 µM (inactive).
As for `COc1cccc2[nH]c3c(N4CCC(C)CC4)ncnc3c12`, the IC50 is > 29.9 µM (inactive).
